This assay deals with Histone deacetylase 1 (Homo sapiens, UniProt Q13547). Briefly: Inhibition of human HDAC1 after 30 mins by fluorescence assay.

Molecules are shown by their SMILES.

Sequence of Histone deacetylase 1 (Q13547 whole entry): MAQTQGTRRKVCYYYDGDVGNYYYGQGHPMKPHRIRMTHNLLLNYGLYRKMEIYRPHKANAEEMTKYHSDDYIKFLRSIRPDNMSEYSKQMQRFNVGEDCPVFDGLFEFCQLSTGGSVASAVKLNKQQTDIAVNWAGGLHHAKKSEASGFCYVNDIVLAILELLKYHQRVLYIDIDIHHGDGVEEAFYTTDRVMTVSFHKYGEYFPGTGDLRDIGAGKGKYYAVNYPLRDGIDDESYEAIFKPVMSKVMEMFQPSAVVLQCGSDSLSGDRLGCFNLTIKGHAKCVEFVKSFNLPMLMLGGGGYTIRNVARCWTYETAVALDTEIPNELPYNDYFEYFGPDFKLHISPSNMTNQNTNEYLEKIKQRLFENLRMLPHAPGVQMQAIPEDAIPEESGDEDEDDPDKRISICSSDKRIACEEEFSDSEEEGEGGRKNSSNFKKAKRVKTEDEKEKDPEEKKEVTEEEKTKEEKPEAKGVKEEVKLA

As to `CC(/C=C/C(=O)N[C@](C)(CO)C(=O)O)=C\[C@@H](C)C(=O)c1ccc(N(C)C)cc1`, the IC50 came to 57 µM.

The molecule `CC(/C=C/C(=O)N[C@@H](CCC(=O)O)C(=O)O)=C\[C@@H](C)C(=O)c1ccc(N(C)C)cc1` registered an IC50 of 48 µM.

In turn, `CC(/C=C/C(=O)NCCS(=O)(=O)O)=C\[C@@H](C)C(=O)c1ccc(N(C)C)cc1` showed an IC50 of 74 µM.

For `CC(/C=C/C(=O)O)=C\[C@@H](C)C(=O)c1ccc(N(C)C)cc1` [TRICHOSTATIC ACID], the IC50 amounted to 73 µM.
